The target of this test is T1, human TLL2 (Homo sapiens, UniProt Q9Y6L7).
T1 construct: amino acids 26-1015 of human TLL2 (NM_012465); made in house
T1 sequence (Q9Y6L7 150-1015): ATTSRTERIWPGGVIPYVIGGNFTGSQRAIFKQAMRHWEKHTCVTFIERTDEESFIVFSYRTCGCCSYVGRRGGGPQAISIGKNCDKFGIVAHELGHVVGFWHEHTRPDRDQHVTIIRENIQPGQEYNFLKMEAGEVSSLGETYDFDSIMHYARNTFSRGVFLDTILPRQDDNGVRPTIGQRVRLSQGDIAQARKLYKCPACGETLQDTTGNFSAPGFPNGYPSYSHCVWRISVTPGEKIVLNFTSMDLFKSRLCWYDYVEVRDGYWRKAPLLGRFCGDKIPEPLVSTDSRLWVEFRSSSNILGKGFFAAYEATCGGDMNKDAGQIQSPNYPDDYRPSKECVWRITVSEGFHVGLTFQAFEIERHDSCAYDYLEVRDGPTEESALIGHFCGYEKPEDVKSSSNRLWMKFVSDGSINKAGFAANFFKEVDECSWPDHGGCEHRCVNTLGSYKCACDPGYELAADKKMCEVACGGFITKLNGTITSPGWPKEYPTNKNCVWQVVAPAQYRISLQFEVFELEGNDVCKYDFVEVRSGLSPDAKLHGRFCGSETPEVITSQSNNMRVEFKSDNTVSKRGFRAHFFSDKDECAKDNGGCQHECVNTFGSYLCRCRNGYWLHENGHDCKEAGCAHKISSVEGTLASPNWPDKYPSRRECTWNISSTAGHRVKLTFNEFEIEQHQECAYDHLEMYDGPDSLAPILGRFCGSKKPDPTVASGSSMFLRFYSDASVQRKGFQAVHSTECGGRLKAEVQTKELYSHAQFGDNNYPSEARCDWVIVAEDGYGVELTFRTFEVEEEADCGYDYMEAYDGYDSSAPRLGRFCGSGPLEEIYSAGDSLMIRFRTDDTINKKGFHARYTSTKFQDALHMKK
Briefly: Enzyme inhibition assay for human TLL2. Particulars: 18 nM TLL2, 5 μM promyostatin peptide substrate; read-out: pIC50, TLL2 enzyme inhibition assay (converted). It is filed as biochemical. An excerpt: Buffer components are purchased from Sigma-Aldrich (St. Louis, Mo.) or an equivalent supplier. The promyostatin peptide substrate is custom synthesized by American Peptide Company (Sunnyvale, Calif.) using the myostatin protein sequence (Uniprot accession number 014793) surrounding the cleavage site reviewed in Hopkins, D. R., et al., 2007 Matrix Biology, 26, 508-523. The procollagen peptide substrate used in the high enzyme BMP1 cleavage assay is custom synthesized by 21st Century Biochemicals (Marlboro, Mass.) using the procollagen Iα protein sequence (Uniprot accession number P02452) surrounding the cleavage site reviewed in Hopkins, D. R., et al., 2007 Matrix Biology, 26, 508-523.
The DNA sequence encoding amino acids 26-1015 of human TLL2 (NM_012465) is PCR amplified from DNA template with the human RAGE signal sequence at the N-terminus and Avi-6×His epitope tags at the C-terminus ([…]). […]
Inhibition of human TLL1 and TLL2 recombinant enzymes is measured in 10 ul endpoint assays in 384-well format using the same promyostatin peptide substrate employed in the above Enzyme Inhibition Assay for human BMP1. […] TLL1 and TLL2 reactions are quenched with 5 μl of 0.5 M EDTA and plates are read on a ViewLux (Perkin Elmer) multilabel plate reader using a 480 nm excitation filter and 540 nm emission filter. […]

SMILES strings stand for the structures. Bounds are passed on as bounds.

For `CCCCC[C@@H](C(=O)NCNC(=O)c1ccc(-c2ccc(C(=O)O)cc2)o1)[C@@H](CC)N(O)C=O` [WO2015/104684 Example 71, 4-(5-((((R)-2-((R)-1-(N-hydroxyformamido)propyl)heptanamido)methyl)carbamoyl)furan-2-yl)benzoic acid], the IC50 was < 0.794 µM.
